Assay results taken from patent US20090123581A1, “COLLAGEN CROSS-LINKING AGENTS ON DENTAL RESTORATIVE TREATMENT AND PREVENTIVE DENTISTRY” (THE BOARD OF TRUSTEES OF THE UNIVERSITY OF ILLINOIS, priority 2006, published 2009).
Values joined by “and” are separate entries in the source; they are usually repeats but may differ in a detail not shown here. Equal values may be shown once.

Experiments:
[1] = Ultimate tensile strength (UTS) of undemineralized (mineralized) dentin after cross-linker treatment (Example 1); set-up: species or system human; conditions: 0.625% GE or 5% GD; for Ultimate tensile strength, mean: pH 7.4
Excerpt: Fixation Processes: Ten sound freshly extracted human molars were used in this study. The teeth were thawed, cleaned of adhering soft tissues, and the occlusal surfaces were ground flat with #320 grit Silicon Carbide paper under running water to remove part of the enamel. Flattening of the occlusal surface by removal of the cusps enables accurate sectioning of samples in beam shape. Teeth were sectioned into 0.5±0.1 by 0.5±0.1 mm thick beams (n=20 beams per tooth) with a slow speed diamond wafering blade (Buehler-Series 15LC Diamond, Lake Bluff, Ill., USA) under constant water coolant (FIG. 1A).
The slabs were randomly divided into two groups: 1) undemineralized dentin and 2) demineralized dentin (FIG. 1A). In Group 2, dentin beams were immersed in 10% phosphoric acid solution (Fisher Scientific, New Jersey, N.J.) for a period of 5 hours. X-rays were taken from the specimens to verify complete tissue demineralization. Specimens were thoroughly rinsed with distilled water for 10 minutes to remove any residue of the phosphoric acid.
Specimens from groups 1 and 2 were subdivided according to the dentin treatment (FIG. 1B). In Treatment A, specimens were immersed in PBS solution (pH: 7.4) as a control. In Treatment B, specimens were immersed in 0.5% Proanthocyanidin (MegaNatural—Polyphenolics Ind.) PBS solution (PA) at a pH of 7.4. In Treatment C, specimens were immersed in 0.625% Genipin (Wako Pure Chemical Ind.) PBS solution (GE) at a pH of 7.4. In Treatment D, specimens were immersed in 5% glutaraldehyde solution (GD) (Fisher Scientific, New Jersey, N.J.) at a pH of 7.4. Specimens were kept in their respective solutions for 4 and 40 hours at room temperature. After the incubation periods, specimens were thoroughly rinsed with distilled and deionized water to remove any remains of cross-linking agents and buffer.
UTS testing: For UTS evaluation, the specimens were glued with a cyanoacrylate adhesive (Zapit—Dental Ventures of America Inc., Corona, Calif.) to a Ciucchi's jig, which was mounted on a universal testing machine (EZ Test, Shimazu Co., Kyoto, Japan) and subjected to microtensile testing at a crosshead speed of 1 mm/min (FIG. 1C). Means and standard deviations were calculated and expressed in microtensile bond strengths (MPa). Statistical analysis was performed using a two-way ANOVA and Fisher's PLSD tests (p<0.05).

[2] = Modulus of elasticity of demineralized dentin, 3-point bend method (Example 3); set-up: species or system human; conditions: for modulus of elasticity, pooled data: pooled over all times (baseline to 4 h)
Excerpt: Twelve sound extracted human molars were used. The teeth were thawed, cleaned of adhering soft tissues, and the occlusal surfaces were ground flat with #320 grit silicon carbide abrasive paper under running water to remove part of the enamel (Buehler, Lake Bluff, Ill.). Flattening of the occlusal surface by cusp removal enables more accurate sectioning of samples. The root portion was sectioned 1 mm below the CEJ and discarded. Teeth were sectioned into 0.5±0.1 mm thick beams (n=5 beams per tooth) in the mesio-buccal direction with a slow speed diamond wafering blade (Buehler-Series 15LC Diamond) under constant water irrigation (FIG. 1A). The sections were further trimmed using a cylindrical diamond bur (#557D, Brasseler, Savannah, Ga.) in a high speed handpiece, to a final rectangular dimension of 0.5 mm thickness×1.7 mm width×7.0 mm length. A dimple was made at one end of the surfaces to allow for repeated measurements to be performed on the same surface (FIG. 1A).
Specimens were immersed in 10% phosphoric acid solution (LabChem Inc, Pittsburgh, Pa.) for a period of 5 hours and thoroughly rinsed with distilled water for 10 minutes. X-rays were taken of the specimens to verify complete tissue demineralization. Demineralized specimens were randomly divided into the following groups according to dentin treatment (FIG. 1B): 2.5% glutaraldehyde (Fisher Biotech, Fair Lawn, N.J.) in PBS (pH: 7.4); 5% glutaraldehyde in PBS (pH: 7.4); 25% glutaraldehyde in PBS (pH: 7.4); 0.65% grape seed extract (Mega-Natural—Polyphenolics Ind., Madera, Calif.) in PBS (pH: 7.4); and 6.5% grape seed extract in PBS solution (pH: 7.4). Specimens were immersed in water for baseline measurements and then in their respective solutions for 10 min, 30 min, 1 hour, 2 hour and 4 hours of cumulative exposure (FIG. 1C).
The 3-point bend method was selected for evaluation of the modulus of elasticity. The advantages of this method are that it requires no gripping of these small specimens and that it is non-destructive and therefore permits repeated measurements to be performed (FIG. 1C). An aluminum alloy fixture with a 5.0 mm span between supports was glued to the bottom of a glass Petri dish. Specimens were tested in compression while immersed in liquid using a Vitrodyne testing machine (Model V-1000, Chatillon, Greensboro, N.C.) with a 50 grams load cell at crosshead speed of 0.5 mm/min. Load-displacement curves were converted to stress-strain curves and the apparent modulus of elasticity calculated at 3% strain. Displacement (D) during compression was calculated at a maximum strain of 3% using the following formula (Nielsen L E. Mechanical properties of polymers and composites. Vol. 1, New York: Marcel Dekker Inc., 1974, p. 45.):
Where ε is strain, L is support span and T is thickness of the specimen.
Then the modulus of elasticity (É) of the specimens was calculated using the following formula (Nielsen, 1974): […]
Where P is the maximum load, L is the support span, D is the displacement, b width of the specimen and T is the thickness of the specimen.
Baseline measurements were obtained with specimens immersed in distilled water. All experimental periods were evaluated with the samples immersed in their respective cross-linking agents. A total of 10-12 specimens were evaluated per group. The data were collected and statistically analyzed using a General Linear Model SPSS program for ANOVA repeated measurements at a 95% confidence interval.

[3] = UTS of demineralized dentin after collagenase challenge (Example 7); conditions: for UTS, individual specimens / UTS, mean: 1 h 25% GD or 6.5% GSE
Description: The data shown below in Tables 7 to 14 and in FIG. 8 describes the effect of grape seed extract and Glutaraldehyde on the tensile strength of demineralized dentin after collagenase challenge. Samples were treated and then subjected to collagenase digestion.

[4] = 24 hrs ammonium bicarbonate buffer, no collagenase
[5] = 24 hrs collagenase 100 ug/ml + ammonium bicarbonate buffer

O=CCCCC=O [GD, glutaraldehyde]
Ultimate tensile strength, mean ([1]; 4 hours in 0.5% PA): 94.5 MPa | Ultimate tensile strength, mean ([1]; 40 hours in 0.5% PA): 110.4 MPa | Ultimate tensile strength, pooled data ([1]; pooled over 4 and 40 hours, 0.5% PA): 102.5 A MPa | modulus of elasticity ([2]; 2.5% GD group, Baseline (in distilled water, before exposure)): 4.82 MPa | modulus of elasticity ([2]; 2.5% GD in PBS pH 7.4, 10 min cumulative exposure): 20.45 MPa | modulus of elasticity ([2]; 2.5% GD in PBS pH 7.4, 30 min cumulative exposure): 30.22 MPa | modulus of elasticity ([2]; 2.5% GD in PBS pH 7.4, 1 h cumulative exposure): 32.10 MPa | modulus of elasticity ([2]; 2.5% GD in PBS pH 7.4, 2 h cumulative exposure): 34.44 MPa | modulus of elasticity ([2]; 2.5% GD in PBS pH 7.4, 4 h cumulative exposure): 34.86 MPa | modulus of elasticity, pooled data ([2]; 2.5% GD): 26.15 A MPa | modulus of elasticity ([2]; 5% GD group, Baseline (in distilled water, before exposure)): 5.97 MPa | modulus of elasticity ([2]; 5% GD in PBS pH 7.4, 10 min cumulative exposure): 18.37 MPa | modulus of elasticity ([2]; 5% GD in PBS pH 7.4, 30 min cumulative exposure): 27.25 MPa | modulus of elasticity ([2]; 5% GD in PBS pH 7.4, 1 h cumulative exposure): 29.77 MPa | modulus of elasticity ([2]; 5% GD in PBS pH 7.4, 2 h cumulative exposure): 33.08 MPa | modulus of elasticity ([2]; 5% GD in PBS pH 7.4, 4 h cumulative exposure): 38.14 MPa | modulus of elasticity, pooled data ([2]; 5% GD): 25.43 A MPa | modulus of elasticity ([2]; 25% GD group, Baseline (in distilled water, before exposure)): 5.32 MPa | modulus of elasticity ([2]; 25% GD in PBS pH 7.4, 10 min cumulative exposure): 32.26 MPa | modulus of elasticity ([2]; 25% GD in PBS pH 7.4, 30 min cumulative exposure): 37.83 MPa | modulus of elasticity ([2]; 25% GD in PBS pH 7.4, 1 h cumulative exposure): 41.31 MPa | modulus of elasticity ([2]; 25% GD in PBS pH 7.4, 2 h cumulative exposure): 41.21 MPa | modulus of elasticity ([2]; 25% GD in PBS pH 7.4, 4 h cumulative exposure): 42.80 MPa | modulus of elasticity, pooled data ([2]; 25% GD): 33.45 B MPa | UTS, individual specimens [3, 4]: 16.93 Mpa and 5.28 Mpa and 9.86 Mpa and 9.57 Mpa and 7.56 Mpa and 8.24 Mpa and 8.76 Mpa and 5.66 Mpa and 7.99 Mpa and 11.97 Mpa and 8.93 Mpa and 7.60 Mpa and 8.38 Mpa | UTS, mean [3, 4]: 8.98 Mpa and 8.99 Mpa | UTS, individual specimens [3, 5]: 10.31 Mpa and 16.54 Mpa and 8.71 Mpa and 8.46 Mpa and 5.59 Mpa and 8.18 Mpa and 9.27 Mpa and 12.33 Mpa and 17.30 Mpa and 7.74 Mpa and 9.75 Mpa and 6.29 Mpa and 16.53 Mpa | UTS, mean [3, 5]: 10.54 Mpa | effect of collagenase digestion on treated demineralized dentin ([3]; strength values versus baseline (no collagenase treatment), control groups fully digested): not affected by the collagenase treatment
